In the supplement of paper PMC8253809:

What was measured:
DIPGX37 [1] = H3.3 K27M diffuse intrinsic pontine glioma line; test: EC50 (inflection of fitted growth-inhibition curve) (log10 M)
Summary of the method: (§1)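 EC50 and maximal response (yFin) were derived from the lowest-AICc fit, either three- or four-parameter log-logistic. The data were pooled CellTiter-Glo luminescence values, log2-transformed and normalised per plate to % activity between negative (solvent) and positive controls. Patient-derived pHGG/DIPG cell lines and astrocyte controls on 1% Geltrex-coated 384-well plates received a 10-point threefold dilution series (mean top concentration 35 μM) by pin tool, in triplicate, for 7 days (iAstro 3 days) at 37 °C, 5% CO2.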

HGGX39 [2] = paediatric high-grade glioma line; test: as above
Summary of the method: as §1

HGGX6 [3] = H3.3 G34R paediatric high-grade glioma line; test: as above
Summary of the method: as §1

DIPGX29 [4] = H3.3 K27M diffuse intrinsic pontine glioma line; test: as above
Summary of the method: as §1

DIPGX37 [5] = test: area under dose-response curve of % growth inhibition (log2 RLU vs DMSO / staurosporine), 1e-11 to 1e-4 M (% x log10 M); higher = more growth inhibition
Summary of the method: (§2)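 Cells were exposed in triplicate for 7 days (iAstro: 3 days) at 37 °C, 5% CO2 to a 10-point series of threefold dilutions with a mean top concentration of 35 μM. These were patient-derived pHGG/DIPG lines plus astrocytes, grown on 384-well plates coated with 1% Geltrex. Readout was CellTiter-Glo luminescence, log2-transformed and set per plate to % activity between solvent and positive controls, from which area under the curve was derived by trapezoid rule on a log-logistic fit or, failing that, a smoothing spline.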

HGGX39 [6] = test: as above
Summary of the method: as §2

HGGX6 [7] = test: as above
Summary of the method: as §2

DIPGX29 [8] = test: as above
Summary of the method: as §2

DIPGX37 [9] = test: maximal growth inhibition (yFin) relative to DMSO / staurosporine; higher = more efficacious
Summary of the method: as §1

HGGX39 [10] = test: as above
Summary of the method: as §1

HGGX6 [11] = test: as above
Summary of the method: as §1

DIPGX29 [12] = test: as above
Summary of the method: as §1

Compound | EC50 (log10 M) (DIPGX37 [1]) | EC50 (log10 M) (HGGX39 [2]) | EC50 (log10 M) (HGGX6 [3]) | EC50 (log10 M) (DIPGX29 [4]) | area under dose-response curve (DIPGX37 [5]) | area under dose-response curve (HGGX39 [6]) | area under dose-response curve (HGGX6 [7]) | area under dose-response curve (DIPGX29 [8]) | maximal growth inhibition (DIPGX37 [9]) [%] | maximal growth inhibition (HGGX39 [10]) [%] | maximal growth inhibition (HGGX6 [11]) [%] | maximal growth inhibition (DIPGX29 [12]) [%]
COc1cccc2c1C(=O)c1c(O)c3c(c(O)c1C2=O)C[C@@](O)(C(C)=O)C[C@@H]3O[C@H]1C[C@H](N)[C@H](O)[C@H](C)O1 [DAUNORUBICIN] | -5.94 | -6.13 | -5.62 | -5.69 | 160 | 159 | 124 | 141 | 82.2 | 76.1 | 76.4 | 83.3
CCCCCCCCCCCC[N+](C)(C)CCOc1ccccc1 [DOMIPHEN] | -5.28 | -5.59 | -5.11 | -5.18 | 109 | 129 | 79.9 | 95.4 | 85.2 | 81 | 71.7 | 80.5
CCCCOc1ccc(C(=O)CCN2CCCCC2)cc1 [DYCLONINE] | -5.35 | -5.12 | -5.02 | -4.83 | 129 | 110 | 89.2 | 92.7 | 95.1 | 98.8 | 87.9 | 87.1
OCCN1CCN(CCCN2c3ccccc3Sc3ccc(C(F)(F)F)cc32)CC1 [FLUFENAZINE] | -4.74 | -4.77 | -4.76 | -4.74 | 59.8 | 64 | 67.4 | 45.7 | 65.2 | 65.9 | 63.5 | 61.6
Fc1ccc(C(c2ccc(F)cc2)N2CCN(C/C=C/c3ccccc3)CC2)cc1 [FLUNARIZINE] | -4.84 | -4.91 | -4.86 | -4.86 | 62.8 | 73.5 | 56.4 | 61.5 | 74.5 | 83 | 65.9 | 71.7
C[C@@H](O[C@H]1OCCN(Cc2nn(P(=O)(O)O)c(=O)[nH]2)[C@H]1c1ccc(F)cc1)c1cc(C(F)(F)F)cc(C(F)(F)F)c1 [FOSAPREPITANT] | -4.83 | -4.81 | -4.84 | -4.84 | 70.6 | 66.7 | 47.1 | 63.6 | 69.8 | 82.4 | 56 | 60.6
CCn1c(=O)c(-c2ccc(Cl)cc2Cl)cc2cnc(Nc3ccc(N4CCNCC4)c(F)c3)nc21 [FRAX486] | -5.3 | -5.64 | -5.32 | -5.23 | 142 | 139 | 97.4 | 135 | 81 | 84.5 | 73.5 | 80.4
COc1cc2ncnc(Nc3ccc(F)c(Cl)c3)c2cc1OCCCN1CCOCC1 [GEFITINIB] | -4.66 | -4.65 | -4.67 | -4.7 | 46.1 | 47.9 | 47.8 | 54.3 | 69.8 | 73.7 | 65.7 | 58.3
CN(C)c1ccc(C(=C2C=CC(=[N+](C)C)C=C2)c2ccc(N(C)C)cc2)cc1 [GENTIAN VIOLET] | -5.13 | -4.97 | -5.16 | -5.15 | 152 | 164 | 133 | 158 | 124 | 121 | 112 | 128
COc1cc(C(=O)N2CC[C@@H](O)[C@@H](N)C2)cc2nc(-c3cc4ccccc4n3CC3CC3)n(C)c12 [GSK-484] | -4.89 | -4.99 | -4.98 | -4.94 | 67.7 | 20.6 | 48.9 | 54.6 | 64 | 20.9 | 45.4 | 50.1
C=CC(=O)N1CCC[C@@H](n2nc(-c3ccc(Oc4ccccc4)cc3)c3c(N)ncnc32)C1 [IBRUTINIB] | -4.96 | -4.94 | -5.01 | -5 | 53.7 | 50.1 | 35.8 | 49.8 | 41.2 | 53.1 | 35.5 | 29.8
O=C1[C@H](Cc2ccc(O)cc2)N2C(=O)CCN(C(=O)NCc3ccccc3)[C@H]2CN1Cc1cccc2ccccc12 [ICG001] | -5.54 | -5.67 | -5.14 | -5.37 | 51.9 | 52.2 | 41.9 | 29.3 | 33.4 | 32.6 | 31.8 | 21.3
CC(C)(C)c1cc(C(C)(C)C)c(NC(=O)c2c[nH]c3ccccc3c2=O)cc1O [IVACAFTOR] | -4.98 | -5.04 | -5.01 | -4.99 | 99.3 | 101 | 91.8 | 90.3 | 97 | 97.1 | 91 | 90.9
CC(=O)N1CCN(c2ccc(OCC3COC(Cn4ccnc4)(c4ccc(Cl)cc4Cl)O3)cc2)CC1 (configuration not stated) [KETOCONAZOLE] | -4.96 | -5.12 | -4.94 | -4.92 | 36.1 | 73.6 | 53.4 | 40.9 | 37.6 | 68.2 | 56.7 | 40.2
CCOC(=O)C1=C(C)NC(C)=C(C(=O)OCC)C1c1ccccc1/C=C/C(=O)OC(C)(C)C [LACIDIPINE] | -4.83 | -4.84 | -4.86 | -4.84 | 75.3 | 76.3 | 63.4 | 72.8 | 91.1 | 90.8 | 74.3 | 87.2
CS(=O)(=O)CCNCc1ccc(-c2ccc3ncnc(Nc4ccc(OCc5cccc(F)c5)c(Cl)c4)c3c2)o1 [LAPATINIB] | -4.7 | -4.71 | -4.69 | -4.72 | 72.5 | 55 | 57.8 | 70.3 | 78.4 | 76.9 | 76.8 | 76.7
